{
  "source": "patent US10995068B2",
  "about": "“Synthetic sphingolipid-like molecules, drugs, methods of their synthesis and methods of treatment” (The Regents of the University of California, priority 2015, dated 2021)",
  "key": {"SW620 cells": {"system": "SW620 cells", "assay": "Phosphorylation in intact cells by UPLC-MS/MS, SW620", "assay_type": "in vitro ADME, human", "conditions": "10 μM, 16 h incubation, percent of total compound recovered by UPLC-MS/MS", "procedure": "Mass spectrometric quantification: One million PC3 or 5 million SW620 cells in one well of a 6 well plate are treated with 10 μM FTY720 or 5 for 16 h. Media (100 μl) is removed from the well and combined with 100 μl of acetonitrile. Cells are collected by scraping, pelleted, and re-suspended in 100 μl of HPLC-grade water followed by the addition of 100 μl acetonitrile. Seventy-five nanograms of the compounds not being quantified (FTY720 and FTY720-P for analysis of the phosphorylation of 5, or 5 and 5-P for the analysis of FTY720/FYT720-P) is added to serve as an internal standard to allow correction for loss of compound during sample preparation. […] Insoluble material is again removed by centrifugation and the supernatant analyzed for compound content. Twenty microliters of this de-proteinated sample is analyzed by UPLC-MS/MS (Waters Micromass Quattro Premier XE) equipped with a C18 reversed phase column (Waters) using an acetonitrile (+0.2% acetic acid) gradient elution. […] The cone voltages are 30V for FTY720 and 5, and 20V for FTY720-P and 5-P. A standard curve is generated using pure compounds to allow for quantification; standard curves were linear from 50-1000 ng/ml with an R^2 of 0.98 or greater. […]"}, "[1]": {"system": "autochthonous prostate tumor (pDKO)", "assay": "pDKO autochthonous prostate cancer mouse model", "assay_type": "in vivo", "procedure": "To determine the sensitivity, SH-BC-893 was evaluated in a validated genetically-engineered mouse model for invasive castration-resistant prostate cancer that lacks p53 and PTEN expression exclusively in the prostate (pDKO) (Wu X, et al. Am J Clin Exp Urol. 2014; 2(2):111-20; Schwarzenböck S, et al. Theranostics. 2012; 2(3):318-330; Chen Z, et al. Nature. 2005; 436(7051):725-730; the disclosures of which are herein incorporated by reference). […] SH-BC-893, however, still produced a phenotype consistent with starvation as the bound NADH fraction increased and cell permeant nutrients protected mPCE cells from death (FIGS. 65A and 65C). Prostate cancer cells depend on exogenous LDL for growth and survival. […] Ceramide and YM201636 both reduced surface LDLr levels, but LDLr still accumulated in different intracellular compartments (FIG. 66A). Consistent with their ability to block lysosomal fusion (FIG. 61), both YM201636 and SH-BC-893 reduced LDL co-localization with Lysotracker Blue (FIGS. 65F and 65G). In keeping with the inhibition of LDL degradation in lysosomes, cellular lipid droplet content was inversely correlated with the extent of vacuolation (FIG. 66B). In summary, sphingolipid-like compounds, such as SH-BC-893, starve slow-growing neoplasms, such prostate cancer, by down-regulating nutrient transporters and blocking lysosomal nutrient generation.\nThe ability of starvation-inducing sphingolipid-like drugs to affect the growth of slow growing or autochthonous neoplasms was also evaluated. In C57BL/6 mice bearing mPCE subcutaneous isografts, 60 mg/kg SH-BC-893 was given daily by gavage and slowed tumor growth by 60% similar to results with SW620 xenografts dosed with 20 mg/kg i.p. (FIGS. 53G-I and 65I). At 120 mg/kg, SH-BC-893 inhibited prostate tumor growth by more than 90% (FIG. 65I). […] Akt activity was slightly elevated by SH-BC-893 consistent with loss of TORC1-mediated negative feedback. Thus, sphingolipid-like compounds, such as SH-BC-893, are effective against neoplasms with distinct molecular defects and metabolic characteristics.\nSH-BC-893 produces equivalent transporter loss and vacuolation in normal and transformed cells and therefore also limits the access of normal cells to nutrients (FIGS. 51C, 51E, 56B and 56C). […] The lack of toxicity to normal tissues is consistent with the finding that non-transformed cells can adapt to nutrient stress that triggers a bioenergetic crisis in less metabolically flexible tumor cells (FIGS. 53D and 53E).\nIn vivo studies. Experiments conducted in mice were performed in accordance with the Institutional Animal Care and Use Committee of University of California, Irvine following a power analysis conducted in consultation with the Biostatistics Shared Resource of Chao Family Comprehensive Cancer Center at UCI. Xenografts were produced by injecting 5 million cells subcutaneously in the flank of 10-16 week-old male or female NSG mice. Prostate isografts were produced in the same manner but in male 6-8 wk old C57BL/6 mice. Once tumors reached 100 mm^3, SH-BC-893 was administered by intraperitoneal (i.p.) injection or oral gavage as indicated. Tumor volume was calculated using the formula, volume (mm^3)=length [mm]×(width [mm])^2×0.52; BLI was measured using an IVIS imaging system (Xenogen). To generate pDKO mice on the C57BL6 background, Pten^flox mice (stock No. 0045597) and p53^flox mice (stock No. 008462) were obtained from the Jackson Laboratory and PB-Cre4 mice (strain #01XF5) were obtained from the NCI-Frederick Mouse Repository. Age-matched cohorts of pDKO males were generated by in vitro fertilization executed with the assistance of the Transgenic Mouse Facility at UC Irvine. Treatment was begun at 6-7 wks of age. […] Tumor samples were processed and imaged by the Pathology Research Services Core Facility at UC Irvine. Blood chemistry was analyzed by IDEXX BioResearch and complete blood counts were performed using a Hemavet hematology system."}},
  "data": [
    {"smiles": "CCCCCCCCc1ccc([C@H]2CCN[C@@H]2CO)cc1.Cl", "note": "[Compound 5, (2S,3R)-2-(hydroxymethyl)-3-(4-octylphenyl)Pyrrolidinium chloride]", "values": [
      {"measurement": "efficiency of phosphorylation in intact cells", "setting": "SW620 cells", "value": "phosphorylated slightly more efficiently than FTY720"},
      {"measurement": "histopathology of intestinal crypts", "setting": "[1]; mice treated with 120 mg/kg for 11 weeks", "value": "normal"},
      {"measurement": "weight gain", "setting": "[1]; pDKO mice", "value": "gained less weight than untreated mice"},
      {"measurement": "decrease of autochthonous tumor growth", "setting": "[1]; pDKO mice, 60 mg/kg", "value": 62, "unit": "%"},
      {"measurement": "decrease of autochthonous tumor growth", "setting": "[1]; pDKO mice, 120 mg/kg", "value": 82, "unit": "%"},
      {"measurement": "prostate tumor progression, histology", "setting": "[1]; pDKO mice, treated mice exclusively exhibited prostatic intraepithelial neoplasia", "value": "slowed prostate tumor progression"},
      {"measurement": "TORC1-dependent ribosomal protein S6 phosphorylation in tumors", "setting": "[1]; treated prostate tumors", "value": "reduced"}
    ]}
  ]
}
